According to US5607937A, “Piperazides of substituted phenylalanine derivatives as thrombin inhibitors” (priority 1993, dated 1997):
Where two headings read alike, the source gives them in different places. One block for each molecule: values may come before it.

Legend:
trypsin [1] = target: T1, trypsin (Bos taurus, UniProt P00760); conditions: literature; cited from earlier work
T1 sequence (P00760 24-246): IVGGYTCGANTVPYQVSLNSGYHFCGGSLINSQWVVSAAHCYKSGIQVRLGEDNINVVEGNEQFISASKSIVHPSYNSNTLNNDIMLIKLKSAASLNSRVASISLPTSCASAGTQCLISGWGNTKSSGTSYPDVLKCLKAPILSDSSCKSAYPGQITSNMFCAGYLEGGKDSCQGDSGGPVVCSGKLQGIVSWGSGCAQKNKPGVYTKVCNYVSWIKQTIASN

[2] = plasma concentration in rats after intravenous administration; type: in vivo; conditions: rat; for concentration at 0.25 h: 15 min; for concentration at 0.5 h: 30 min; for concentration at 1 h: 60 min; for elimination in words: i.v.
Method: (§3) A physiological NaCl solution of the substance to be tested was submitted to high pressure liquid chromatography (HPLC) in order to determine its characteristic substance-specific retention time with the chosen test conditions.
(§4) The substance to be tested was diluted in vitro in rat plasma. This solution was also submitted to HPLC to see whether the characteristic peak of the substance once again appeared at the substance-specific retention time.
(§5) Blood samples were taken at time intervals of 15 minutes, from which plasma samples were prepared by centrifugation; those samples were also submitted to HPLC to see whether the characteristic peak of the substance appeared again at the substance-specific retention time.
(§6) After administration, blood samples were taken from the test animals at time intervals from 2 to maximally 360 minutes and the blood level of the compounds to be tested was determined by HPLC.

[3] = plasma concentration in rats after oral administration; type: in vivo; conditions: rat, oral
Method: as §3, §4, §5, §6

[4] = plasma concentration in rats after rectal administration; type: in vivo; conditions: rat; for concentration at 0.5 h: 30 min; for concentration at 1 h: 60 min; for concentration at 2 h: 120 min; for concentration at 3 h: 180 min; for concentration at 4 h: 240 min
in vivo = conditions: rat
[5] = test system: coagulation in rat plasma; assay: thrombin time in rat plasma after rectal application; type: in vivo; conditions: rectal 5 mg/kg
Method: (§1) After rectal administration of the compounds to be tested, the anticoagulant effect was determined in the plasma of experimental animals.

[6] = test system: coagulation in rat plasma; assay: aPTT in rat plasma after rectal application; type: in vivo; conditions: rectal 5 mg/kg
Method: as §1

[7] = concentration in rat plasma in the anticoagulant study after rectal application; type: in vivo; conditions: rectal 5 mg/kg; for concentration at 0.5 h / concentration at 1 h / concentration at 2 h / concentration at 3 h: plasma; for concentration at 0.5 h: 30 min; for concentration at 1 h: 60 min; for concentration at 2 h: 120 min; for concentration at 3 h: 180 min; for Concentration in plasma: 0 min
thrombin = thrombin (Bos taurus, UniProt P00735); assay: biochemical
[8] = test system: coagulation in human plasma; assay: thrombin time (TT) in human plasma
tPA = tPA (Homo sapiens, UniProt P00750); assay: inhibition of tPA, dissociation constant Ki
[9] = test system: coagulation in human plasma; assay: prothrombin time (PT, Quick value) in human plasma
factor XIIa = target: T2, factor XIIa (Homo sapiens, UniProt P00748); assay: inhibition of factor XIIa, dissociation constant Ki; conditions: Ki, Factor XIIa, Table 1
T2 sequence (P00748 373-615 limits assumed): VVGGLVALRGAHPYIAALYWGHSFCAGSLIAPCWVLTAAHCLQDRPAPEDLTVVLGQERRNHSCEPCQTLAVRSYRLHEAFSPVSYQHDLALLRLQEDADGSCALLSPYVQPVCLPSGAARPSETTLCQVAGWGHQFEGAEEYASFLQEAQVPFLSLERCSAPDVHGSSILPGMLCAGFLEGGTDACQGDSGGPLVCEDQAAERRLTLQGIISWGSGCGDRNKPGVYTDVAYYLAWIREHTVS

plasma kallikrein = plasma kallikrein (Homo sapiens, UniProt P03952); assay: inhibition of plasma kallikrein, dissociation constant Ki
glandular kallikrein = glandular kallikrein (Sus scrofa, UniProt P00752); assay: inhibition of glandular kallikrein, dissociation constant Ki
[10] = test system: coagulation in human plasma; assay: activated partial thromboplastin time (aPTT) in human plasma
trypsin [11] = target: T1, trypsin; assay: inhibition of trypsin, dissociation constant Ki; type: biochemical; design: thrombin and the related enzymes trypsin, plasmin, factor Xa, factor XIIa; conditions: Table 1; read-out: Ki, Trypsin
Method: (§2) The biological activity of the compounds of the present invention was determined in vitro as well as in vivo.

factor Xa = factor Xa (Bos taurus, UniProt P00743); assay: inhibition of factor Xa, dissociation constant Ki; type: biochemical; conditions: Table 1
Method: as §2

[12] = plasma, intraduodenal 100 mg/kg, 30 min

Sequence of tPA (P00750 36-562): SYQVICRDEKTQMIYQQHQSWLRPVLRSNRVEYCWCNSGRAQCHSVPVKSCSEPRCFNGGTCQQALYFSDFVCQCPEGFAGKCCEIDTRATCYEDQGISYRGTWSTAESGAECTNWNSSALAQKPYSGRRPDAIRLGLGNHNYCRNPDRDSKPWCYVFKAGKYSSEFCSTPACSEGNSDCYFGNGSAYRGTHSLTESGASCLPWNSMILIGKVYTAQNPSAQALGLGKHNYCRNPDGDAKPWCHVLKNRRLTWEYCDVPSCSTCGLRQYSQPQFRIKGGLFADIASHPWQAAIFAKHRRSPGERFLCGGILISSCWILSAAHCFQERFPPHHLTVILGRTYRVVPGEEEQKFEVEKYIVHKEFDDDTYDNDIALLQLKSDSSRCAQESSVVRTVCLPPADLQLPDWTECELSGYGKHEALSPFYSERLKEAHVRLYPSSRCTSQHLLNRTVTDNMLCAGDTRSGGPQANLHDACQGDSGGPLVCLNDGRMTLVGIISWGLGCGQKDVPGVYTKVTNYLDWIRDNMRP
Sequence of plasma kallikrein (P03952 391-638 limits assumed, species assumed): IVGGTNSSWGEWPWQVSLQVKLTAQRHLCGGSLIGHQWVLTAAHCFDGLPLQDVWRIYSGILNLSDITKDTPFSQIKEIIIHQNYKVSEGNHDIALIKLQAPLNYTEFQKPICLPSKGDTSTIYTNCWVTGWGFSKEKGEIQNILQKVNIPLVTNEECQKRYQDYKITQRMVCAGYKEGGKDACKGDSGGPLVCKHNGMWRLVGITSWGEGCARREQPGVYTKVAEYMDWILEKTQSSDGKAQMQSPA
Sequence of plasma kallikrein (P03952 20-390 partner limits assumed, species assumed): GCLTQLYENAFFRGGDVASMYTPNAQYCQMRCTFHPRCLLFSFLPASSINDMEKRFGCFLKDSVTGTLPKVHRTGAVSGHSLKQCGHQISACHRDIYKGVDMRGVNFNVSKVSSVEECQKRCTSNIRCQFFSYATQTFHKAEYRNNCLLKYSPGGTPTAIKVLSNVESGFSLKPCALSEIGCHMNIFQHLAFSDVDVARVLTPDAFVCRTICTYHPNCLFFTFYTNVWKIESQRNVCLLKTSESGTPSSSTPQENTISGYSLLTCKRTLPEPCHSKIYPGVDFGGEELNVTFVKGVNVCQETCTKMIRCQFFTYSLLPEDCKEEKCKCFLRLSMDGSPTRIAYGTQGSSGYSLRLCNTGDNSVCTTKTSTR
Sequence of glandular kallikrein (P00752 8-246): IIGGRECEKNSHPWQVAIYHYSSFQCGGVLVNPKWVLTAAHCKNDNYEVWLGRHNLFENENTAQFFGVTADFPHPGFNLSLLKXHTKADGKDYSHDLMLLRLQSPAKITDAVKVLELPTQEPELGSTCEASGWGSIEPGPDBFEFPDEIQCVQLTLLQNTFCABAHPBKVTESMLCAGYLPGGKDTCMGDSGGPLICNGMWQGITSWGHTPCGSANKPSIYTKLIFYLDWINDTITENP
Sequence of factor Xa (P00743 234-492 limits assumed): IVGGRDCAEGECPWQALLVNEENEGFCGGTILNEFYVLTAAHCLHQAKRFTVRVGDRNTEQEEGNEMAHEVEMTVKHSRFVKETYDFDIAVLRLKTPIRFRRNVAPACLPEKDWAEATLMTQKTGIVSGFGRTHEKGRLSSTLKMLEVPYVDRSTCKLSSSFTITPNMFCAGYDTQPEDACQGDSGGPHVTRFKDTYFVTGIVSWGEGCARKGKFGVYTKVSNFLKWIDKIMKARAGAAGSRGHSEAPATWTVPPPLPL
Sequence of factor Xa (P00743 41-180 partner limits assumed): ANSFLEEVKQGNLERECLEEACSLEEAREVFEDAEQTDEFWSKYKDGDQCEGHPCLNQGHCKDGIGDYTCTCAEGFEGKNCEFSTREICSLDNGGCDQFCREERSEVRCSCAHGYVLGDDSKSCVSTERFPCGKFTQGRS

SMILES: CC1CNc2c(cccc2S(=O)(=O)N[C@@H](CCCN=C(N)N)C(=O)N2CC[C@@H](C)C[C@@H]2C(=O)O)C1 (stereo partly drawn) [(2R,4R)-4-methyl-1-[Nα-(3-methyl-1,2,3,5-tetrahydro-8-quinolinesulfonyl)-L-arginine]-2-pipecoline-carboxylic acid]
trypsin-inhibiting activity in words (trypsin [1]): practically no trypsin-inhibiting activity

concentration at 5 min ([2]; plasma, iv, i.v. 1 mg/kg): 2210 ng/mL
concentration at 0.25 h ([2]; plasma, iv, i.v. 1 mg/kg): 145 ng/mL
concentration at 0.5 h ([2]; plasma, iv, i.v. 1 mg/kg): 313 ng/mL
concentration at 1 h ([2]; plasma, iv, i.v. 1 mg/kg): 112 ng/mL
elimination in words [2]: eliminated at comparable rate
Concentration in plasma ([2]; i.v. 1 mg/kg, 120 min): 0 ng/mL
Concentration in plasma ([2]; i.v. 1 mg/kg, 180 min): 0 ng/mL
resorption in words [3]: only slightly resorbed
concentration at 0.5 h ([4]; plasma, rectal 20 mg/kg): 7260 ng/mL
concentration at 1 h ([4]; plasma, rectal 20 mg/kg): 3800 ng/mL
concentration at 2 h ([4]; plasma, rectal 20 mg/kg): 1740 ng/mL
concentration at 3 h ([4]; plasma, rectal 20 mg/kg): 814 ng/mL
concentration at 4 h ([4]; plasma, rectal 20 mg/kg): 215 ng/mL
concentration at 5 h ([4]; plasma, rectal 20 mg/kg, 300 min): 61 ng/mL
concentration at 6 h ([4]; plasma, rectal 20 mg/kg, 360 min): 34 ng/mL
detectable in plasma after rectal administration ([4]; rectal): ≥ 6 h
concentration at 0.5 h (in vivo; [12]): 3820 ng/mL
Concentration in plasma (in vivo; in vivo, other, 100 mg/kg, 120 min): 361 ng/mL
Concentration in plasma (in vivo; intraduodenal 100 mg/kg, 30 min, dihydrochloride, 100 mg/kg): 2262 ng/mL
Concentration in plasma (in vivo; intraduodenal 100 mg/kg, 60 min, dihydrochloride, 100 mg/kg): 2172 ng/mL
Concentration in plasma (in vivo; intraduodenal 100 mg/kg, 60 min, listed as 3*, dihydrochloride, 100 mg/kg): 795 ng/mL
Concentration in plasma (in vivo; intraduodenal 100 mg/kg, 120 min): 1457 ng/mL
Concentration in plasma (in vivo; intraduodenal 100 mg/kg, 180 min, dihydrochloride, 100 mg/kg): 945 ng/mL
Concentration in plasma (in vivo; intraduodenal 100 mg/kg, 180 min, listed as 3*, dihydrochloride, 100 mg/kg): 228 ng/mL
Concentration in plasma (in vivo; intraduodenal 100 mg/kg, 240 min, dihydrochloride, 100 mg/kg): 1277 ng/mL
Concentration in plasma (in vivo; intraduodenal 100 mg/kg, 240 min, listed as 3*, dihydrochloride, 100 mg/kg): 144 ng/mL
Concentration in plasma (in vivo; intraduodenal 100 mg/kg, 300 min, dihydrochloride, 100 mg/kg): 1400 ng/mL
Concentration in plasma (in vivo; intraduodenal 100 mg/kg, 300 min, listed as 3*, dihydrochloride, 100 mg/kg): 276 ng/mL
concentration at 0.5 h [7]: 897 ng/mL
concentration at 1 h [7]: 462 ng/mL
concentration at 2 h [7]: 355 ng/mL
concentration at 3 h [7]: 49 ng/mL
Concentration in plasma [7]: 0 ng/mL
Ki (thrombin): 0.036 µM
Ki (tPA): 190 µM
Ki (factor XIIa): 320 µM
Ki (plasma kallikrein): 25 µM
Ki (glandular kallikrein): > 1000 µM
Ki (trypsin [11]): 0.6 µM
SMILES: Cl.Cl.N=C(N)c1cccc(C[C@H](NS(=O)(=O)c2ccc3ccccc3c2)C(=O)N2CCN(CCO)CC2)c1 [Compound 3, Nα-(2-naphthylsulfonyl)-3-amidino-(L)-phenylalanine-4-(2-hydroxyethyl) -piperazide dihydrochloride]
Clotting time, Thrombin time ([5]; 0 min): 45 s
Clotting time, Thrombin time ([5]; 30 min): 300 s
Clotting time, Thrombin time ([5]; 60 min): 298 s
Clotting time, Thrombin time ([5]; 120 min): 165 s
Clotting time, Thrombin time ([5]; 180 min): 114 s
Clotting time, aPTT ([6]; 0 min): 23.5 s
Clotting time, aPTT ([6]; 30 min): 39.8 s
Clotting time, aPTT ([6]; 60 min): 32.8 s
Clotting time, aPTT ([6]; 120 min): 27.4 s
Clotting time, aPTT ([6]; 180 min): 26.0 s
Concentr. to double the Thrombin time [8]: 0.14 µmol/L
Concentr. to double the Prothrombin time [9]: 1.3 µmol/L
Concentr. to double the aPTT [10]: 0.65 µmol/L

SMILES: CN(C)C(=O)N1CCN(C(=O)[C@H](Cc2cccc(C(=N)N)c2)NS(=O)(=O)c2ccc3ccccc3c2)CC1 [Compound 6]
Ki (factor Xa): 15 µM
concentration at 5 min ([2]; plasma, iv, i.v. 1 mg/kg): 823 ng/mL
concentration at 0.25 h ([2]; plasma, iv, i.v. 1 mg/kg): 289 ng/mL
concentration at 0.5 h ([2]; plasma, iv, i.v. 1 mg/kg): 194 ng/mL
concentration at 1 h ([2]; plasma, iv, i.v. 1 mg/kg): 141 ng/mL
concentration at 2 h ([2]; plasma, iv, i.v. 1 mg/kg, 120 min): 86 ng/mL
concentration at 3 h ([2]; plasma, iv, i.v. 1 mg/kg, 180 min): 70 ng/mL
elimination in words [2]: eliminated at comparable rate
resorption in words [3]: only slightly resorbed
concentration at 0.5 h ([4]; plasma, rectal 20 mg/kg): 1180 ng/mL
concentration at 1 h ([4]; plasma, rectal 20 mg/kg): 449 ng/mL
concentration at 2 h ([4]; plasma, rectal 20 mg/kg): 850 ng/mL
concentration at 3 h ([4]; plasma, rectal 20 mg/kg): 272 ng/mL
concentration at 4 h ([4]; plasma, rectal 20 mg/kg): 46 ng/mL
concentration at 0.5 h (in vivo; [12]): 20500 ng/mL
concentration at 1 h (in vivo; plasma, intraduodenal 100 mg/kg, 60 min): 6500 ng/mL
concentration at 2 h (in vivo; plasma, intraduodenal 100 mg/kg, 120 min): 3280 ng/mL
concentration at 3 h (in vivo; plasma, intraduodenal 100 mg/kg, 180 min): 2060 ng/mL
concentration at 4 h (in vivo; plasma, intraduodenal 100 mg/kg, 240 min): 1500 ng/mL
concentration at 5 h (in vivo; plasma, intraduodenal 100 mg/kg, 300 min): 1200 ng/mL
concentration at 6 h (in vivo; plasma, intraduodenal 100 mg/kg, 360 min): 1440 ng/mL
Clotting time, Thrombin time ([5]; 0 min): 55.3 s
Clotting time, Thrombin time ([5]; 30 min): > 300 s
Clotting time, Thrombin time ([5]; 60 min): > 300 s
Clotting time, Thrombin time ([5]; 120 min): > 300 s
Clotting time, Thrombin time ([5]; 180 min): 213 s
Clotting time, aPTT ([6]; 0 min): 22.3 s
Clotting time, aPTT ([6]; 30 min): 34.5 s
Clotting time, aPTT ([6]; 60 min): 31.5 s
Clotting time, aPTT ([6]; 120 min): 28.4 s
Clotting time, aPTT ([6]; 180 min): 26 s
concentration at 0.5 h [7]: 648 ng/mL
concentration at 1 h [7]: 362 ng/mL
concentration at 2 h [7]: 157 ng/mL
concentration at 3 h [7]: 83 ng/mL
Concentration in plasma [7]: 0 ng/mL
Ki (thrombin): 0.004 µM
Concentr. to double the Thrombin time [8]: 0.042 µmol/L
concentration to double the TT [8]: less than 10^-7 mol/1
Ki (tPA): > 1000 µM
Concentr. to double the Prothrombin time [9]: 0.65 µmol/L
concentration to double the PT [9]: ≤ 1 μmol/1
Ki (factor XIIa): 51 µM
Ki (plasma kallikrein; Ki, Plasma kallikr., Table 1): 7.3 µM
Ki (glandular kallikrein): > 1000 µM
Concentr. to double the aPTT [10]: 0.3 µmol/L
concentration to double the aPTT [10]: ≤ 1 μmol/1
Ki (trypsin [11]): 0.097 µM
